ChEMBL document CHEMBL5096222, “Discovery of a Trifluoromethoxy Cyclopentanone Benzothiazole Receptor-Interacting Protein Kinase 1 Inhibitor as the Treatment for Alzheimer's Disease” (J Med Chem, 2022)
Calls of active or inactive are those of the source. No cut-off for these calls is given here.

How the values were obtained:
[1] = system: Mus musculus; assay: Antialzheimer activity against STZ induced C57BL/6 mouse model of cognitive dysfunction assessed as prolonged exploration time for new objects at 1 mg/kg, IG administered once daily for 7 days by novel object recognition test; type: functional, organism-based; conditions: time 7.0 day
[2] = molecular target: T1, Receptor-interacting serine/threonine-protein kinase 1 (Mus musculus) (UniProt Q60855); assay: Inhibition of RIPK1 in mouse L929 cells assessed as reduction in TZ induced necroptosis pretreated with compound followed by TZ stimulation for 4 hrs by celltiter-glo luminescent cell viability assay; type: cell-based; conditions: dose 0.000781-0.025 µM, DDE = dose-dependent effect
T1 sequence (whole entry): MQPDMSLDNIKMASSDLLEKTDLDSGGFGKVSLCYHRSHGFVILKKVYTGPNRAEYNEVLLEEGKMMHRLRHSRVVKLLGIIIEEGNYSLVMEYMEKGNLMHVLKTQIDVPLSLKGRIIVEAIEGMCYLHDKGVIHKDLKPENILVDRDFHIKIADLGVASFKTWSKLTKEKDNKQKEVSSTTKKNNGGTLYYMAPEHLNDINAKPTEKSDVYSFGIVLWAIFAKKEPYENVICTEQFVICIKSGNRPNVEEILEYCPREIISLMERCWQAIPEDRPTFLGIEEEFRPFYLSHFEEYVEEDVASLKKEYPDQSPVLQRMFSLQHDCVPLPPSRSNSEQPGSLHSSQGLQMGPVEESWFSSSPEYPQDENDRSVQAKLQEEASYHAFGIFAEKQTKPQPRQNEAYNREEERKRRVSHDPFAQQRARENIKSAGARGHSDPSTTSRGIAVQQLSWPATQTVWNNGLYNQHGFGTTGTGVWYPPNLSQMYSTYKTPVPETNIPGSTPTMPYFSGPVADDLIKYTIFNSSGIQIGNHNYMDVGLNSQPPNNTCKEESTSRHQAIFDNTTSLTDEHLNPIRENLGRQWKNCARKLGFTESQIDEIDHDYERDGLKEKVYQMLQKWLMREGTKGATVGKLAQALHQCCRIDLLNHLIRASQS

[3] = molecular target: T2, Receptor-interacting serine/threonine-protein kinase 1 (Homo sapiens) (UniProt Q13546); assay: Inhibition of RIPK1 in human HT-29 cells assessed as reduction in TCZ induced necroptosis at 0.2 to 25 nM pretreated with compound followed by TCZ stimulation for 16 hrs by celltiter-glo luminescent cell viability assay; type: cell-based; conditions: dose 0.2-25 nM
T2 sequence (whole entry): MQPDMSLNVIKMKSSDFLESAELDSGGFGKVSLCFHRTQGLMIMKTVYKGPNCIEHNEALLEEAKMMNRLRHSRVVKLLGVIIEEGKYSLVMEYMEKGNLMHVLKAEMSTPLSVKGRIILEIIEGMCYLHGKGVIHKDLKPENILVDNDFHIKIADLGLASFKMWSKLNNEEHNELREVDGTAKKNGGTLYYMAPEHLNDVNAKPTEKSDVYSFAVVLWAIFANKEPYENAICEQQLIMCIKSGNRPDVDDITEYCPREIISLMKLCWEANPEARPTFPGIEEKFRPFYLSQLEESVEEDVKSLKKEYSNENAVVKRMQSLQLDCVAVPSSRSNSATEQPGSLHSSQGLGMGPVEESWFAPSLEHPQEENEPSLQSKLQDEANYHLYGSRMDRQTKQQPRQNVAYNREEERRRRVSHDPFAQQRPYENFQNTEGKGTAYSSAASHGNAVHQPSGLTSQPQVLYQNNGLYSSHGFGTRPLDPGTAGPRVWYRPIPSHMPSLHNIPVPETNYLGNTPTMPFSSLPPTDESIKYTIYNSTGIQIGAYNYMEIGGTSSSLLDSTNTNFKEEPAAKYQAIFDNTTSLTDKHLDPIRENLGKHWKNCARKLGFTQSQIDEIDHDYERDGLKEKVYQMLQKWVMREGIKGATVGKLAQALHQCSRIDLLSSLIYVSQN

[4] = Toxicity in C57BL/6 mouse assessed as effect on heart by H and E staining based analysis; type: tissue-based; conditions: in vivo
[5] = Toxicity in C57BL/6 mouse assessed as effect on liver by H and E staining based analysis; type: tissue-based; conditions: in vivo
[6] = species on record: Mus musculus; assay: Antialzheimer activity against STZ induced C57BL/6 mouse model of cognitive dysfunction assessed as decrease in p-Tau level in hippocampus by Western blot analysis; type: functional, organism-based
[7] = species on record: Mus musculus; assay: Antialzheimer activity against STZ induced C57BL/6 mouse model of cognitive dysfunction assessed as decrease in p-Tau level in frontal cortex by Western blot analysis; type: functional, organism-based
[8] = species on record: Mus musculus; assay: Antialzheimer activity against STZ induced C57BL/6 mouse model of cognitive dysfunction assessed as restoration of hippocampal morphology by Nissl staining based analysis; type: functional, organism-based
[9] = molecular target: T3, Receptor-interacting serine/threonine-protein kinase 3 (Homo sapiens, UniProt Q9Y572); assay: Inhibition of RIPK3 phosphorylation in TSZ induced human HT-29 cells at 1 uM pretreated with compound followed by TSZ stimulation upto 6 hrs by immunoblotting analysis; type: cell-based
Target sequence in this assay (Q9Y572 whole entry, looked up): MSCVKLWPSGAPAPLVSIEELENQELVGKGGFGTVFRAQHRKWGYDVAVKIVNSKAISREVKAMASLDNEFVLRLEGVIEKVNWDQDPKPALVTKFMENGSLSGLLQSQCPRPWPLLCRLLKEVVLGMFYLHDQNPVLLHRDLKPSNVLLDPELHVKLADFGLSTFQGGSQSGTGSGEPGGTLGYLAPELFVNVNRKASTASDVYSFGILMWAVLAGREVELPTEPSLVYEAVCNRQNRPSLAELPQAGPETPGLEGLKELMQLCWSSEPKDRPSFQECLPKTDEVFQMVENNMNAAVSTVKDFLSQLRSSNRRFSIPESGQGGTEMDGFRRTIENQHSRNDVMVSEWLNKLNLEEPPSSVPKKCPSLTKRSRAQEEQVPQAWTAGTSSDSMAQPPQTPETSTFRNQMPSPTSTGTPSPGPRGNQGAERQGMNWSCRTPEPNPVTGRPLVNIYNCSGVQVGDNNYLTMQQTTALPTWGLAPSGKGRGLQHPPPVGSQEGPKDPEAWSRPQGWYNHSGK

[10] = system: Mus musculus; assay: Antialzheimer activity against STZ induced C57BL/6 mouse model of cognitive dysfunction assessed as reduction in latency at 1 mg/kg, IG administered once daily for 7 days; type: functional, organism-based; conditions: time 7.0 day
[11] = species on record: Mus musculus; assay: Antialzheimer activity against STZ induced C57BL/6 mouse model of cognitive dysfunction assessed as downregulation of IL-1 beta in hippocampus; type: functional, organism-based
[12] = species on record: Mus musculus; assay: Antialzheimer activity against STZ induced C57BL/6 mouse assessed as decrease in p-RIPK3/RIPK3 ratio in frontal cortex; type: functional, organism-based
[13] = molecular target: T2, Receptor-interacting serine/threonine-protein kinase 1 (Homo sapiens); assay: Inhibition of RIPK1 in human HT-29 cells assessed as reduction in TSZ induced necroptosis pretreated with compound followed by TSZ stimulation for 8 hrs by celltiter-glo luminescent cell viability assay; type: cell-based; conditions: dose 0.4-50 nM, DDE = dose-dependent effect
[14] = molecular target: T2, Receptor-interacting serine/threonine-protein kinase 1 (Homo sapiens); assay: Inhibition of RIPK1 phosphorylation in TSZ induced human HT-29 cells at 1 uM pretreated with compound followed by TSZ stimulation upto 6 hrs by immunoblotting analysis relative to control; type: cell-based
[15] = system: HT-29; assay: Inhibition of RIPK1 expression in TSZ induced human HT-29 cells at 1 uM pretreated with compound followed by TSZ stimulation upto 6 hrs by immunoblotting analysis; type: functional, cell-based
[16] = species on record: Mus musculus; assay: Antialzheimer activity against STZ induced C57BL/6 mouse assessed as decrease in p-RIPK3/RIPK3 ratio in hippocampus; type: functional, organism-based
[17] = system: Mus musculus; assay: Anti-necroptosis activity against TNFalpha-induced C57BL/6 mouse model of systemic inflammatory response syndrome assessed as protection against hypothermia at 20 to 40 mg/kg, IG pretreated for 1 hr followed by TNFalpha stimulation relative to control; type: functional; conditions: dose 20-40 mg/kg
[18] = system: Mus musculus; assay: Antialzheimer activity against STZ induced C57BL/6 mouse model of cognitive dysfunction assessed as increase in quadrant time at 1 mg/kg, IG administered once daily for 7 days; type: functional, organism-based; conditions: time 7.0 day
[19] = species on record: Mus musculus; assay: Antialzheimer activity against STZ induced C57BL/6 mouse model of cognitive dysfunction assessed as decrease of TNF-alpha expression in hippocampus; type: functional, organism-based
[20] = species on record: Mus musculus; assay: Antialzheimer activity against STZ induced C57BL/6 mouse assessed as decrease in p-RIPK1/RIPK1 ratio in frontal cortex; type: functional, organism-based
[21] = molecular target: T2, Receptor-interacting serine/threonine-protein kinase 1 (Homo sapiens); assay: Inhibition of RIPK1 in human HT-29 cells assessed as reduction in TSZ induced necroptosis at 25 to 50 nM pretreated with compound followed by TSZ stimulation for 8 hrs by celltiter-glo luminescent cell viability assay relative to control; type: cell-based; conditions: dose 25-50 nM
[22] = Toxicity in C57BL/6 mouse assessed as effect on kidney by H and E staining based analysis; type: tissue-based; conditions: in vivo
[23] = Cytotoxicity against mouse primary neurons assessed as reduction in cell viability at 0.256 to […] by celltiter-glo luminescent cell viability assay; type: toxicity, cell-based; conditions: neuron, dose 0.256-[…]
[24] = molecular target: T3, Receptor-interacting serine/threonine-protein kinase 3; assay: Binding affinity to recombinant human wild type partial length RIPK3 (M1 to Q307 residues) expressed in bacterial expression system by KINOMEscan TM assay
Target sequence in this assay (Q9Y572 whole entry): as the sequence (Q9Y572 whole entry, looked up) above

[25] = system: HT-29; assay: Anti-necroptotic activity in TSZ induced human HT-29 cells assessed as increase in cell viability pretreated with compound followed by TSZ stimulation and measured after 16 hrs by celltiter-glo luminescent cell viability assay; type: functional, cell-based
[26] = species on record: Mus musculus; assay: Antialzheimer activity against STZ induced C57BL/6 mouse assessed as decrease in p-RIPK1/RIPK1 ratio in hippocampus; type: functional, organism-based
[27] = system: Mus musculus; assay: Anti-necroptosis activity against TNFalpha-induced C57BL/6 mouse model of systemic inflammatory response syndrome assessed as reduction in IL-6 level administered IG pretreated for 1 hr followed by TNFalpha stimulation for 2 hrs; type: functional, organism-based; conditions: dose 10-40 mg/kg, time 3.0 hrs, DDE = dose-dependent effect
[28] = system: Mus musculus; assay: Antialzheimer activity against STZ induced C57BL/6 mouse model of cognitive dysfunction assessed as increase in preference index at 1 mg/kg, IG administered once daily for 7 days by novel object recognition test; type: functional, organism-based; conditions: time 7.0 day
[29] = system: Mus musculus; assay: Anti-necroptosis activity against TNFalpha-induced C57BL/6 mouse model of systemic inflammatory response syndrome assessed as reduction in IL-1 beta level administered IG pretreated for 1 hr followed by TNFalpha stimulation for 2 hrs; type: functional, organism-based; conditions: dose 10-40 mg/kg, time 3.0 hrs, DDE = dose-dependent effect
[30] = molecular target: T4, Mixed lineage kinase domain-like protein (Homo sapiens) (UniProt Q8NB16); assay: Inhibition of MLKL phosphorylation in TSZ induced human HT-29 cells at 1 uM pretreated with compound followed by TSZ stimulation upto 6 hrs by immunoblotting analysis; type: cell-based
T4 sequence (whole entry): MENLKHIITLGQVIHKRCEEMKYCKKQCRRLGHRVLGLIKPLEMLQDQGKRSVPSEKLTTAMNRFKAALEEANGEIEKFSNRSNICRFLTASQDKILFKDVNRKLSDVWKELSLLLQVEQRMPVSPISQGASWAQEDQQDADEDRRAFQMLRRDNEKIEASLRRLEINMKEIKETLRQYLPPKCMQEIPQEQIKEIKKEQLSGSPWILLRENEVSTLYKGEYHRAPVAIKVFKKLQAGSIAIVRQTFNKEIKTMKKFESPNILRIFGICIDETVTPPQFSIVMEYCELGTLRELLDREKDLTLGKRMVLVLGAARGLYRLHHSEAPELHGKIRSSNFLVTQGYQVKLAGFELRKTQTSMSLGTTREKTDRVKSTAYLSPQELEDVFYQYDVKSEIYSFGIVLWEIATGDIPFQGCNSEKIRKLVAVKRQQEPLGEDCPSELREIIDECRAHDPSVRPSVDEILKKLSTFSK

[31] = system: HT-29; assay: Inhibition of TSZ induced RIPK1-RIPK3 necrosome formation in human HT-29 cells at 1 uM measured after 6 hrs by immunoblot analysis; type: functional, cell-based
[32] = system: Mus musculus; assay: Antialzheimer activity against STZ induced C57BL/6 mouse model of cognitive dysfunction assessed as increase in number of active avoidance time at 1 mg/kg, IG administered once daily and measured for 4 days by active avoidance test; type: functional, organism-based; conditions: time 4.0 day
[33] = system: Mus musculus; assay: Antialzheimer activity against STZ induced C57BL/6 mouse model of cognitive dysfunction assessed as increase in percentage of quadrant time at 1 mg/kg, IG administered once daily for 7 days; type: functional, organism-based; conditions: time 7.0 day
[34] = Toxicity in C57BL/6 mouse assessed as effect on spleen by H and E staining based analysis; type: tissue-based; conditions: in vivo
[35] = species on record: Mus musculus; assay: Antialzheimer activity against STZ induced C57BL/6 mouse model of cognitive dysfunction assessed as downregulation of IL-1 beta in frontal cortex; type: functional, organism-based
[36] = system: Mus musculus; assay: Antialzheimer activity against STZ induced C57BL/6 mouse model of cognitive dysfunction assessed as increase in central distance of mouse at 1 mg/kg, IG administered once daily for 7 days; type: functional, organism-based; conditions: time 7.0 day
[37] = molecular target: T5, Receptor-interacting serine/threonine-protein kinase 1 (Homo sapiens, UniProt Q13546); assay: Binding affinity to recombinant human wild type partial length RIPK1 (M1 to K305 residues) expressed in bacterial expression system by KINOMEscan TM assay
T5 sequence (Q13546 whole entry): T2 sequence (whole entry)

[38] = species on record: Mus musculus; assay: Antialzheimer activity against STZ induced C57BL/6 mouse model of cognitive dysfunction assessed as restoration of hippocampal cell number by Nissl staining based analysis; type: functional, organism-based
[39] = species on record: Mus musculus; assay: Antialzheimer activity against STZ induced C57BL/6 mouse model of cognitive dysfunction assessed as decrease of TNF-alpha expression in frontal cortex; type: functional, organism-based
[40] = Cytotoxicity against human HT-29 cells assessed as reduction in cell viability by celltiter-glo luminescent cell viability assay; type: toxicity, cell-based
[41] = Toxicity in C57BL/6 mouse assessed as effect on lungs by H and E staining based analysis; conditions: in vivo

inhibition [9]: Active
inhibition [14]: 100%
Kd [24]: > 5000 nM
inhibition [30]: Active
Kd [37]: 8.6 nM
SMILES: O=C1CC(C(=O)Nc2nc3cc(Oc4ccc(F)c(NC(=O)Cc5cccc(OC(F)(F)F)c5)c4)c(F)cc3s2)C1
Activity [1]: Active
Activity [2]: Dde
inhibition [3]: Active
Activity [4]: Non-Toxic
Activity [5]: Non-Toxic
Activity [6]: Active
Activity [7]: Active
Activity [8]: Active
Activity [10]: Active
Activity [11]: Active
Activity [12]: Active
inhibition [13]: Dde
inhibition [15]: Active
Activity [16]: Active
Activity [17]: 100%
Activity [18]: Active
Activity [19]: Active
Activity [20]: Active
inhibition [21]: 100%
Activity [22]: Non-Toxic
Activity [23]: Non-Toxic
EC50 [25]: 2 nM
Activity [26]: Active
Activity [27]: Dde
Activity [28]: Active
Activity [29]: Dde
inhibition [31]: Active
Activity [32]: Active
Activity [33]: Active
Activity [34]: Non-Toxic
Activity [35]: Active
Activity [36]: Active
Activity [38]: Active
Activity [39]: Active
CC50 [40]: > 50000 nM
Activity [41]: Non-Toxic
